Results taken from article PMC13622972 (Antiviral research, 2022).
Positions of bridges follow the written chain, without caps; N, C: chain ends. Residues, ends and D or L forms follow the SMILES beside them.

What was measured:
[1] = system: wild type Ebola virus Zaire; conditions: 36 h
[2] = system: pseudotyped Vesicular stomatitis virus (VSV); assay type: cell-based
[3] = system: pseudotyped Marburg virus (MARV)
[4] = system: pseudotyped Ebola virus (EBOV)

**Q.** `CC(C)[C@@H]1NC(=O)[C@H](Cc2ccccc2)NC(=O)[C@H](Cc2ccccc2)NC(=O)[C@H](CC(=O)O)NC(=O)[C@H](CC(=O)O)NC(=O)CNC(=O)[C@H](CCCCN)NC(=O)[C@@H](NC(=O)[C@@H](N)Cc2c[nH]cn2)CSSC[C@@H](C(=O)N[C@@H](Cc2ccc(O)cc2)C(=O)O)NC(=O)[C@H](C)NC(=O)[C@H](Cc2ccc(O)cc2)NC1=O` [erp1c, HCKGDDFFVYACY] (H-HCKGDDFFVYACY-OH; disulfide 2-12 (inferred); N-terminus and C-terminus assumed) was tested. Which IC50 [1] did it give?
**A.** 10.5 µM

**Q.** And the “Activity against the pseudotyped VSV virus” value [2]?
**A.** no activities

**Q.** What about the IC50 [3] of the same compound?
**A.** 28.5 µM

**Q.** What about the IC50 [4] of the same compound?
**A.** 12.3 µM

**Q.** What does the source list for `C[C@@H](O)[C@@H]1NC(=O)CNC(=O)[C@@H](N)CSSC[C@@H](C(=O)O)NC(=O)[C@H](Cc2ccc(O)cc2)NC(=O)[C@H](Cc2ccc(O)cc2)NC(=O)[C@H](Cc2ccc(O)cc2)NC(=O)[C@H](Cc2ccccc2)NC1=O` [m78abc, CGTFYYYC] (H-CGTFYYYC-OH; disulfide 1-8 (inferred); N-terminus and C-terminus assumed)?
**A.** Activity against the pseudotyped VSV virus [2]: no activities; IC50 [3]: 12.5 µM; IC50 [4]: 16.1 µM

**Q.** How did the “Activity against the pseudotyped VSV virus” value [2] turn out when `CC(C)[C@@H]1NC(=O)[C@H](Cc2ccccc2)NC(=O)CNC(=O)[C@H](CO)NC(=O)[C@@H](N)CSSC[C@@H](C(=O)O)NC(=O)[C@H](Cc2c[nH]c3ccccc23)NC(=O)[C@H](CCC(=O)O)NC1=O` [m191abc, CSGFVEWC] (H-CSGFVEWC-OH; disulfide 1-8 (inferred); N-terminus and C-terminus assumed) was run?
**A.** no activities

**Q.** What about the IC50 [3] of the same compound?
**A.** 8.5 µM

**Q.** And the IC50 [4]?
**A.** 37.2 µM
